According to US7947662B2, “Folates, compositions and uses thereof” (priority 2008, dated 2011):
Like-named read-outs stand apart in the source and are kept apart here.

Columns and labels:
[1] = Stability of the powder in sealed aluminium foil bag, purity and titre by HPLC; format: physicochemical; details: protected from light; for Titre, starting values: HPLC titre of acid moiety; for Titre, starting values / Purity, starting values: start; for Purity, starting values: airtight container
Method: The stability of the compounds listed in the following table, under powder form and in sealed aluminium foil bag, was tested, keeping the samples in airtight container, protected from light and measuring the purity and the titre thereof after 6 and 12 months.
In particular, the stability of the acid moiety was observed by HPLC, detecting the purity and titre thereof.

[2] = mice, one capsule
Method: The biological tests were carried out on 12 mice weighing 200-300 g, administering to each of them one 3 mg capsule containing the dose of the selected compound, as below reported, dispersed in lactose.
The haematic values of the selected compound were subsequently evaluated after regular time intervals (0, 30, 60, 95, 120 min.).

[3] = cited from earlier work
[4] = background statement, cited from earlier work
[5] = after nine months, U.S. Pat. No. 5,817,659 (Example 1)
[6] = after twelve months, U.S. Pat. No. 6,271,374 (Example 1)

SMILES | Titre, starting values [1] | Purity, starting values [1] | Purity after 6 months [1] | Titre after 6 months [1] | Purity after 12 months [1] | Titre after 12 months [1] | haematic value ([2]; time 0.5 h) | haematic value ([2]; time 1.5 h) | haematic value ([2]; time 2 h) | titre decrease [3, 5] | also measured
CN1c2c(nc(N)[nH]c2=O)NCC1CNc1ccc(C(=O)NC(CCC(=O)O)C(=O)O)cc1.NC1C(O)OC(CO)C(O)C1O.NC1C(O)OC(CO)C(O)C1O (mixture of isomers) [D-GAL (6R,S)-5-MTHF, D-galactosamine 5-methyl-(6R,S)-tetrahydrofolate] | 55.5% | 99.1 | 98.9 | 55.2% | 98.7 | 55.3% | – | – | – | – | –
CN1c2c(nc(N)[nH]c2=O)NCC1CNc1ccc(C(=O)NC(CCC(=O)O)C(=O)O)cc1.NC1C(O)OC(CO)C(O)C1O.NC1C(O)OC(CO)C(O)C1O (mixture of isomers) [D-GLU 5-MTHF, D-glucosamine 5-methyl-(6R,S)-tetrahydrofolate] | 55.2% | 99.1 | 98.9 | 55% | 99.0 | 54.8% | 83.2 ± 4.9 nmol/L | 83.8 ± 4.3 nmol/L | 82.8 ± 4.3 nmol/L | – | –
CN1c2c([nH]c(N)nc2=O)NC[C@@H]1CNc1ccc(C(=O)N[C@@H](CCC(=O)[O-])C(=O)[O-])cc1.[Ca+2] [5-methyl-(6S)-tetrahydrofolic acid calcium salts] | – | – | – | – | – | – | – | – | – | – | titre decrease ([3]; after twelve months, U.S. Pat. No. 6,441,168 (Example 1)): about 1%
Nc1nc(=O)c2c([nH]1)NC[C@@H](CNc1ccc(C(=O)N[C@@H](CCC(=O)[O-])C(=O)[O-])cc1)N2.[Ca+2] [(6R)-tetrahydrofolic acid calcium salts] | – | – | – | – | – | – | – | – | – | about 2% | titre decrease [3, 6]: about 7%
Nc1nc(=O)c2c([nH]1)NCC(CNc1ccc(C(=O)N[C@@H](CCC(=O)[O-])C(=O)[O-])cc1)N2.[Ca+2] (stereo partly drawn) [(6R,S)-tetrahydrofolic acid calcium salts] | – | – | – | – | – | – | – | – | – | about 2% | –
Nc1nc(=O)c2c([nH]1)NC[C@H](CNc1ccc(C(=O)N[C@@H](CCC(=O)[O-])C(=O)[O-])cc1)N2.[Ca+2] [(6S)-tetrahydrofolic acid calcium salts] | – | – | – | – | – | – | – | – | – | about 2% | titre decrease [3, 6]: about 7%
N[C@H]1C(O)O[C@H](CO)[C@H](O)[C@@H]1O.N[C@H]1C(O)O[C@H](CO)[C@H](O)[C@@H]1O.Nc1nc2ncc(CNc3ccc(C(=O)N[C@@H](CCC(=O)O)C(=O)O)cc3)nc2c(=O)[nH]1 [D-GAL folate, D-galactosamine L-folate] | 54.8% | 99.2 | 99.1 | 54.5% | 98.7 | 54.2% | – | – | – | – | –
CN1c2c(nc(N)[nH]c2=O)NCC1CNc1ccc(C(=O)NC(CCC(=O)O)C(=O)O)cc1.NC1C(O)OC(CO)C(O)C1O.NC1C(O)OC(CO)C(O)C1O [D-GLU (6S)-5-MTHF, D-glucosamine 5-methyl-(6S)-tetrahydrofolate] | 55.7% | 99.3 | 99.0 | 55.4% | 98.5 | 55.1% | 83.7 ± 5.2 nmol/L | 83.7 ± 4.3 nmol/L | 83 ± 4.3 nmol/L | – | haematic value ([2]; time 1 h): 86.1 ± 5.0 nmol/L
N[C@H]1C(O)O[C@H](CO)[C@@H](O)[C@@H]1O.N[C@H]1C(O)O[C@H](CO)[C@@H](O)[C@@H]1O.Nc1nc2ncc(CNc3ccc(C(=O)N[C@@H](CCC(=O)O)C(=O)O)cc3)nc2c(=O)[nH]1 [D-GLU folate, D-glucosamine L-folate] | 54.6% | 99.1 | 98.8 | 54.3% | 98.7 | 54% | 75.3 ± 4.3 nmol/L | 78.4 ± 4.3 nmol/L | 76.8 ± 4.3 nmol/L | – | haematic value ([2]; time 1 h): 79.8 ± 5.2 nmol/L
Nc1nc2ncc(CNc3ccc(C(=O)N[C@@H](CCC(=O)O)C(=O)O)cc3)nc2c(=O)[nH]1 [Folic acid, N-[4-[[(2-amino-1,4-dihydro-4-oxo-6-pteridinyl)methyl]amino]benzoyl]-L-glutamic acid] | – | – | – | – | – | – | – | – | – | – | solubility in alcohol ([4]; alcohol): insoluble; solubility in dilute solutions of alkali hydroxides and carbonates [4]: readily soluble; solubility in water ([4]; water): very slightly soluble
